Patent publication US20050239656A1, “Pyridine compounds or salts thereof and herbicides containing the same” (priority 2002, published 2005)

Assays:
corn [1] = assay: Test Example 1: foliage treatment, upland pot test; assay type: in vivo, Zea mays L.; details: crop, active ingredient 500 g/ha, observed 18th to 23rd day, 0 = non-treated, 100 = complete kill
Summary of the method: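 Corn seeds were sown in upland field soil held in a 1/170,000 ha pot and grown to the 2.1 to 3.2 leaf stage. A wettable powder or emulsifiable concentrate of the test compound was diluted with water at 500 L/ha, given 0.1% (v/v) agricultural spreader, and sprayed onto the foliage with a small sprayer. Growth controlling degree (%) was scored visually 18th to 23rd days later, from 0 (non-treated) to 100 (complete kill).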

prickly sida [2] = assay: Test Example 2: soil surface treatment, upland pot test; assay type: in vivo, Sida spinosa L.; details: observed 20th to 28th day
Summary of the method: (§1)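 Soil surface treated 1 day post-sowing. Formulation: WP or EC, predetermined a.i., diluted to 1,500 L/ha. Pot size 1/170,000 ha, upland soil. Readout: visual % control, 0 = non-treated, 100 = dead, days 20–28.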

corn [3] = assay: as above; assay type: in vivo, Zea mays L.; details: observed 20th to 28th day
Summary of the method: as §1

crabgrass [4] = assay: as above; assay type: in vivo, Digitaria sanguinalis L.; details: observed 20th to 28th day
Summary of the method: as §1

wheat [5] = assay: as above; assay type: in vivo, Triticum spp.; details: observed 20th to 28th day
Summary of the method: as §1

barnyardgrass [6] = assay: Test Example 1: foliage treatment, upland pot test; assay type: in vivo, Echinochloa crus-galli L.; details: active ingredient 500 g/ha, observed 18th to 23rd day, 0 = non-treated, 100 = complete kill
Summary of the method: (§2)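 Applied as a post-emergence foliar spray: formulated compound diluted to 500 L/ha with spreader at 0.1% (v/v). Treatment timing—rice at 1.2–2.6, wheat at 1.3–2.4, barnyardgrass at 1.3–2.8, soybean at 0.1–0.4 leaf stage. Scored visually on a 0–100% control scale after 18–23 days.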

prickly sida [7] = assay: Test Example 1: foliage treatment, upland pot test; assay type: in vivo, Sida spinosa L.; details: active ingredient 500 g/ha, observed 18th to 23rd day, 0 = non-treated, 100 = complete kill
rice [8] = assay: Test Example 2: soil surface treatment, upland pot test; assay type: in vivo, Oryza sativa L.; details: observed 20th to 28th day
Summary of the method: as §1

green foxtail [9] = assay: Test Example 1: foliage treatment, upland pot test; assay type: in vivo, Setaria viridis L.; details: active ingredient 500 g/ha, observed 18th to 23rd day, 0 = non-treated, 100 = complete kill
velvetleaf [10] = assay: Test Example 1: foliage treatment, upland pot test; assay type: in vivo, Abutilon theophrasti MEDIC.; details: active ingredient 500 g/ha, observed 18th to 23rd day, 0 = non-treated, 100 = complete kill
redroot pigweed [11] = assay: Test Example 1: foliage treatment, upland pot test; assay type: in vivo, Amaranthus retroflexus L.; details: active ingredient 500 g/ha, observed 18th to 23rd day, 0 = non-treated, 100 = complete kill
rice [12] = assay: Test Example 1: foliage treatment, upland pot test; assay type: in vivo, Oryza sativa L.; details: crop, active ingredient 500 g/ha, observed 18th to 23rd day, 0 = non-treated, 100 = complete kill
Summary of the method: as §2

barnyardgrass [13] = assay: Test Example 3: paddy pot test, application under submerged conditions; assay type: in vivo, Echinochloa crus-galli L.; details: submerged application at 0.5 leaf stage, visually observed 14 days after application, 0 = non-treated, 100 = complete kill
Summary of the method: (§3)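 Seeds were sown in flooded paddy soil (0.5–1 cm water), wapato tubers were planted 1–2 days later, and water was then held at 3–4 cm. Diluted wettable powder or emulsifiable concentrate was pipetted into the water at the 0.5 leaf or primary leaf stage. Growth control was visually scored at 14 days (0–100%).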

japanese bulrush = assay: as above; assay type: in vivo, Scirpus juncoides; details: submerged application at 0.5 leaf stage, visually observed 14 days after application, 0 = non-treated, 100 = complete kill
Summary of the method: as §3

barnyardgrass [14] = assay: Test Example 2: soil surface treatment, upland pot test; assay type: in vivo, Echinochloa crus-galli L.; details: observed 20th to 28th day
Summary of the method: as §1

crabgrass [15] = assay: Test Example 1: foliage treatment, upland pot test; assay type: in vivo, Digitaria sanguinalis L.; details: active ingredient 500 g/ha, observed 18th to 23rd day, 0 = non-treated, 100 = complete kill
velvetleaf [16] = assay: Test Example 2: soil surface treatment, upland pot test; assay type: in vivo, Abutilon theophrasti MEDIC.; details: observed 20th to 28th day
Summary of the method: as §1

wheat [17] = assay: Test Example 1: foliage treatment, upland pot test; assay type: in vivo, Triticum spp.; details: crop, active ingredient 500 g/ha, observed 18th to 23rd day, 0 = non-treated, 100 = complete kill
Summary of the method: as §2

rice (var. Nihonbare) = assay: Test Example 3: paddy pot test, transplanted rice; assay type: in vivo, Oryza sativa L.; details: applied 4th day after transplantation, visually observed 21st day after application, 0 = non-treated, 100 = complete kill
Summary of the method: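 Rice (2-leaf stage) was transplanted 3 cm deep into puddled, leveled paddy soil under 3–4 cm flooding. On day 4 after transplanting, diluted wettable powder or emulsifiable concentrate was pipetted onto the water at a predetermined active-ingredient dose. Growth control (0 = untreated, 100 = complete kill) was scored visually 21 days later.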

soybean [18] = assay: Test Example 1: foliage treatment, upland pot test; assay type: in vivo, Glycine max Merr.; details: crop, active ingredient 500 g/ha, observed 18th to 23rd day, 0 = non-treated, 100 = complete kill
Summary of the method: as §2

green foxtail [19] = assay: Test Example 2: soil surface treatment, upland pot test; assay type: in vivo, Setaria viridis L.; details: observed 20th to 28th day
Summary of the method: as §1

soybean [20] = assay: as above; assay type: in vivo, Glycine max Merr.; details: observed 20th to 28th day
Summary of the method: as §1

redroot pigweed [21] = assay: as above; assay type: in vivo, Amaranthus retroflexus L.; details: observed 20th to 28th day
Summary of the method: as §1

CC(C)C(c1cnccc1C(F)(F)F)N(C)S(=O)(=O)c1ccc(Cl)cc1 (racemic) [I-125]
Growth controlling degree (%) Corn (corn [1]): 60% | Growth controlling degree (%) Prickly sida (prickly sida [2]; active ingredient 500 g/ha): 80% | Growth controlling degree (%) Corn (corn [3]; active ingredient 500 g/ha): 10% | Growth controlling degree (%) Crabgrass (crabgrass [4]; active ingredient 500 g/ha): 100% | Growth controlling degree (%) wheat (wheat [5]; active ingredient 500 g/ha): 20% | Growth controlling degree (%) Barnyardgrass (barnyardgrass [6]): 70% | Growth controlling degree (%) Prickly sida (prickly sida [7]): 80% | Growth controlling degree (%) Rice (rice [8]; active ingredient 500 g/ha): 30% | Growth controlling degree (%) Green foxtail (green foxtail [9]): 70% | Growth controlling degree (%) Velvetleaf (velvetleaf [10]): 70% | Growth controlling degree (%) Redroot pigweed (redroot pigweed [11]): 60% | Growth controlling degree (%) Rice (rice [12]): 40% | Growth controlling degree (%) Barnyardgrass (barnyardgrass [13]; active ingredient 250 g/ha): 100% | Growth controlling degree (%) Japanese bulrush (japanese bulrush; active ingredient 250 g/ha): 70% | Growth controlling degree (%) Barnyardgrass (barnyardgrass [14]; active ingredient 500 g/ha): 100% | Growth controlling degree (%) Crabgrass (crabgrass [15]): 95% | Growth controlling degree (%) Velvetleaf (velvetleaf [16]; active ingredient 500 g/ha): 70% | Growth controlling degree (%) wheat (wheat [17]): 10% | Growth controlling degree (%) Rice (rice (var. Nihonbare); active ingredient 250 g/ha): 10% | Growth controlling degree (%) Soybean (soybean [18]): 80% | Growth controlling degree (%) Green foxtail (green foxtail [19]; active ingredient 500 g/ha): 100% | Growth controlling degree (%) Soyabean (soybean [20]; active ingredient 500 g/ha): 10% | Growth controlling degree (%) Redroot pigweed (redroot pigweed [21]; active ingredient 500 g/ha): 50%

CC(C)C(c1cnccc1C(F)(F)F)N(C)S(=O)(=O)c1ccc(F)cc1F (racemic) [I-127]
Growth controlling degree (%) Corn (corn [1]): 40% | Growth controlling degree (%) Prickly sida (prickly sida [2]; active ingredient 500 g/ha): 50% | Growth controlling degree (%) Corn (corn [3]; active ingredient 500 g/ha): 10% | Growth controlling degree (%) Crabgrass (crabgrass [4]; active ingredient 500 g/ha): 90% | Growth controlling degree (%) wheat (wheat [5]; active ingredient 500 g/ha): 30% | Growth controlling degree (%) Barnyardgrass (barnyardgrass [6]): 70% | Growth controlling degree (%) Prickly sida (prickly sida [7]): 70% | Growth controlling degree (%) Rice (rice [8]; active ingredient 500 g/ha): 20% | Growth controlling degree (%) Green foxtail (green foxtail [9]): 50% | Growth controlling degree (%) Velvetleaf (velvetleaf [10]): 60% | Growth controlling degree (%) Redroot pigweed (redroot pigweed [11]): 20% | Growth controlling degree (%) Rice (rice [12]): 30% | Growth controlling degree (%) Barnyardgrass (barnyardgrass [13]; active ingredient 250 g/ha): 100% | Growth controlling degree (%) Japanese bulrush (japanese bulrush; active ingredient 250 g/ha): 70% | Growth controlling degree (%) Barnyardgrass (barnyardgrass [14]; active ingredient 500 g/ha): 100% | Growth controlling degree (%) Crabgrass (crabgrass [15]): 95% | Growth controlling degree (%) Velvetleaf (velvetleaf [16]; active ingredient 500 g/ha): 40% | Growth controlling degree (%) wheat (wheat [17]): 0% | Growth controlling degree (%) Rice (rice (var. Nihonbare); active ingredient 250 g/ha): 0% | Growth controlling degree (%) Soybean (soybean [18]): 60% | Growth controlling degree (%) Green foxtail (green foxtail [19]; active ingredient 500 g/ha): 100% | Growth controlling degree (%) Soyabean (soybean [20]; active ingredient 500 g/ha): 10% | Growth controlling degree (%) Redroot pigweed (redroot pigweed [21]; active ingredient 500 g/ha): 60%

CC(C)C(c1cnccc1C(F)(F)F)N(C)C(=O)Cc1ccc(OC(F)F)cc1 (racemic) [I-128]
Growth controlling degree (%) Corn (corn [1]): 70% | Growth controlling degree (%) Prickly sida (prickly sida [2]; active ingredient 500 g/ha): 80% | Growth controlling degree (%) Corn (corn [3]; active ingredient 500 g/ha): 50% | Growth controlling degree (%) Crabgrass (crabgrass [4]; active ingredient 500 g/ha): 100% | Growth controlling degree (%) wheat (wheat [5]; active ingredient 500 g/ha): 30% | Growth controlling degree (%) Barnyardgrass (barnyardgrass [6]): 70% | Growth controlling degree (%) Prickly sida (prickly sida [7]): 80% | Growth controlling degree (%) Rice (rice [8]; active ingredient 500 g/ha): 40% | Growth controlling degree (%) Green foxtail (green foxtail [9]): 50% | Growth controlling degree (%) Velvetleaf (velvetleaf [10]): 80% | Growth controlling degree (%) Redroot pigweed (redroot pigweed [11]): 60% | Growth controlling degree (%) Rice (rice [12]): 50% | Growth controlling degree (%) Barnyardgrass (barnyardgrass [13]; active ingredient 250 g/ha): 100% | Growth controlling degree (%) Japanese bulrush (japanese bulrush; active ingredient 250 g/ha): 90% | Growth controlling degree (%) Barnyardgrass (barnyardgrass [14]; active ingredient 500 g/ha): 100% | Growth controlling degree (%) Crabgrass (crabgrass [15]): 95% | Growth controlling degree (%) Velvetleaf (velvetleaf [16]; active ingredient 500 g/ha): 60% | Growth controlling degree (%) wheat (wheat [17]): 30% | Growth controlling degree (%) Rice (rice (var. Nihonbare); active ingredient 250 g/ha): 0% | Growth controlling degree (%) Soybean (soybean [18]): 80% | Growth controlling degree (%) Green foxtail (green foxtail [19]; active ingredient 500 g/ha): 100% | Growth controlling degree (%) Soyabean (soybean [20]; active ingredient 500 g/ha): 20% | Growth controlling degree (%) Redroot pigweed (redroot pigweed [21]; active ingredient 500 g/ha): 30%

Cc1ccc(S(=O)(=O)N(C)C(c2cnccc2C(F)(F)F)C(C)C)cc1 (racemic) [I-130]
Growth controlling degree (%) Corn (corn [1]): 70% | Growth controlling degree (%) Prickly sida (prickly sida [2]; active ingredient 250 g/ha): 50% | Growth controlling degree (%) Corn (corn [3]; active ingredient 250 g/ha): 20% | Growth controlling degree (%) Crabgrass (crabgrass [4]; active ingredient 250 g/ha): 98% | Growth controlling degree (%) wheat (wheat [5]; active ingredient 250 g/ha): 20% | Growth controlling degree (%) Barnyardgrass (barnyardgrass [6]): 70% | Growth controlling degree (%) Prickly sida (prickly sida [7]): 80% | Growth controlling degree (%) Rice (rice [8]; active ingredient 250 g/ha): 40% | Growth controlling degree (%) Green foxtail (green foxtail [9]): 60% | Growth controlling degree (%) Velvetleaf (velvetleaf [10]): 70% | Growth controlling degree (%) Redroot pigweed (redroot pigweed [11]): 70% | Growth controlling degree (%) Rice (rice [12]): 40% | Growth controlling degree (%) Barnyardgrass (barnyardgrass [13]; active ingredient 125 g/ha): 100% | Growth controlling degree (%) Japanese bulrush (japanese bulrush; active ingredient 125 g/ha): 70% | Growth controlling degree (%) Barnyardgrass (barnyardgrass [14]; active ingredient 250 g/ha): 100% | Growth controlling degree (%) Crabgrass (crabgrass [15]): 80% | Growth controlling degree (%) Velvetleaf (velvetleaf [16]; active ingredient 250 g/ha): 10% | Growth controlling degree (%) wheat (wheat [17]): 10% | Growth controlling degree (%) Rice (rice (var. Nihonbare); active ingredient 125 g/ha): 10% | Growth controlling degree (%) Soybean (soybean [18]): 40% | Growth controlling degree (%) Green foxtail (green foxtail [19]; active ingredient 250 g/ha): 95% | Growth controlling degree (%) Soyabean (soybean [20]; active ingredient 250 g/ha): 10% | Growth controlling degree (%) Redroot pigweed (redroot pigweed [21]; active ingredient 250 g/ha): 10%
